Source: patent publication US9597347B2, “Compositions for treating obesity and insulin resistance disorders” (President and Fellows of Harvard College, priority 2003, dated 2017)
Entries after “also recorded” stand apart in the source; their conditions may differ.

Legend:
[1] = system: Wild-type N2 C. elegans worms; assay: Nile Red staining of fat accumulation in wild-type N2 C. elegans; format: in vivo; settings: overnight
Protocol: Wild-type N2 C. elegans worms were grown on OP50 bacteria and exposed overnight to vehicle (0.1% ethanol) alone or with 10, 50 or 100 μM of resveratrol (in ethanol). Fat accumulation was visualized with Nile Red staining, as described further below and in Ashrafi K, et al. Nature 421:268-27 (2003).
Synchronized starved L1 worms were grown in the presence of Nile Red. Strains were grown on NGM plates at 25° C. for approximately 48 hours until the young adult stage was reached. 20-30 young adult worms were then washed 2× with M9 buffer and transferred to new NGM/Nile red experimental plates that contained either OP50 or HTT5 E. coli carrying the L4440 RNAi control vector. For experiments comparing the effect of nicotinamide and resveratrol on fat mobilization, OP50 plates were coated with vehicle alone or Nicotinamide (in PBS), or vehicle alone and Resveratrol (in Ethanol or DMSO).
Resveratrol (Indofine #024964) was dissolved in Ethanol or DMSO to a 10 mM stock solution. Resveratrol was added to 60 mm NGM agar dishes containing either OP50 or RNAi expressing bacteria (HT115) to a final concentration of 10 μm, 50 μm, and 100 μM. Nile Red was also added to plates to a final concentration of 0.05 μg/ml. Nicotinamide (Supelco #47865-U) was diluted in PBS including Nile Red and added to […] dishes containing OP50 to a final concentration of 1 mM, 10 mM, or 100 mM.
Nile Red: Nile Red Powder (Sigma #N-3013) was dissolved in acetone at 500 μg/ml, diluted in 1× Phosphate Buffered Saline (PBS) including appropriate drug and applied to surface of Nematode Growth Media (NGM) plates previously seeded with OP50 or RNAi bacteria, at a final concentration of 0.05 μg/ml. Fat content was monitored and recorded by fluorescence microscopy.
Nile Red Staining was visualized by using a Nikon TE2000S microscope equipped with a CY3 filter (emission 535-685 nm). Images were captured using a SPOT RT monochrome digital camera attached to the Nikon Microscope with SPOT RT software v3.5. All Nile red images were acquired using identical settings and exposure times and then changed to red palette.

phosphorylation of ACC = assay: Western blot of ACC phosphorylation in 3T3-L1 adipocytes; format: cell-based; settings: harvested 6 or 10 days after induction of differentiation
Protocol: Phosphorylation of ACC, which reflects AMPK activity, was also observed in 3T3-L1 adipocytes treated with either ethanol or resveratrol. 3T3-L1 cells were incubated with either ethanol or resveratrol and then harvested either 6 or 10 days after they were induced to differentiate into adipocytes from the parent 3T3 fibroblast cell line. […] ACC was also phosphorylated when the cells were incubated in serum free media overnight before harvesting (lanes marked “SF”). The reason for the extra band in the SIRT1 blot at day 6 is unknown, but we hypothesize that it may be a modified form of SIRT1. Tubulin served as a loading control.

3T3-L1 cells = assay: Adipocyte differentiation and fat content by Oil Red O staining, 3T3-L1 cells; format: cell-based
Protocol: To obtain evidence that resveratrol affects fat metabolism in a physiologically relevant cell, we examined the effect of increasing concentrations of resveratrol on 3T3-L1 and NIH3T3 cell differentiation and fat content. 3T3-L1 or NIH3T3 cells were grown to confluence and allowed to pack in for 2 days at which point differentiation was initiated by addition of isobutylmethylxanthine, dexamethasone and insulin in the presence of vehicle (ethanol alone) or resveratrol at concentrations of 0, 12.5 and 25 μM. After 10 days of differentiation, fat content was assessed by Oil Red O staining, as described below. The results, which are shown in FIG. 12, indicate that concentrations of 25 μM or higher resveratrol decreased the quantity of cellular fat in 3T3-L1 and NIH3T3 cells. The results in NIH3T3 cells confirm the results obtained in C. elegans.
We then infected 3T3 preadipoctyes/adipocytes with pMX alone or pMX encoding PPAR-γ and examined the effect of resveratrol on 3T3 cell differentiation. 3T3-L1 and NIH3T3 cells were infected with a plasmid expressing GFP or PPAR-γ and grown to confluence. […]
3T3-L1 and NIH3T3 cells were maintained in DMEM plus 10% calf serum. […] The staining of adipocytes with Oil Red-O and quantitation was performed as described previously (Ramirez-Zacarias J L, Castro-Munozledo F, Kuri-Harcuch W. Histochemistry. 1992 July; 97(6):493-7). […]

PPAR-γ = assay: Expression of the adipogenic transcription regulator PPAR-γ in 3T3 cells; format: cell-based; settings: cells exposed to resveratrol during differentiation
Excerpt: AICAR stimulates AMPK signaling and inhibits adipogenesis in 3T3 cells. To distinguish whether the effect of resveratrol was to inhibit differentiation or mobilize fat from 3T3 cells, we examined whether resveratrol inhibited the expression of adipogenic transcription regulators such as PPAR-γ.

[2] = system: TNF-alpha treated adipocytes; assay: Radioactive glucose uptake in TNF-alpha treated, insulin resistant adipocytes; format: cell-based; settings: resveratrol 5 μM or 15 μM; roziglitazone 4 μM (positive control); with TNF-alpha
Protocol: Adipocytes were treated with TNF-alpha to induce insulin resistance as described in Kabayama et al., Glycobiology 15:21-29 (2005) and Wu et al., Mol. Cell 3:151-8 (1999).

[3] = system: Wild-type N2 C. elegans worms; assay: Nile Red staining of fat accumulation in wild-type N2 C. elegans; format: in vivo; settings: 100 μM, L1 animals, 48 hours, control 2.5% v/v DMSO

## Oc1ccc(/C=C/c2cc(O)cc(O)c2)cc1 [resveratrol, 3,5,4′-Trihydroxy-trans-stilbene]
[1]; 10 μM or 50 μM
  fat accumulation: marked decrease in fat accumulation
[1]; 100 μM
  reduction of fat accumulation: 90%
Phosphorylation of ACC
  phosphorylation of ACC: stimulated the phosphorylation of ACC at both day 6 and day 10
3T3-L1 cells; 10 days of differentiation, 0, 12.5 and 25 μM tested, Oil Red O
  concentrations that decreased the quantity of cellular fat: ≥ 25 µM
3T3-L1 cells; cells overexpressing PPAR-γ, 0, 25 or 50 μM, eight days of differentiation
  inhibition of 3T3 preadipocyte differentiation: partially negated inhibition of 3T3 preadipocyte differentiation by resveratrol
PPAR-γ
  PPAR-γ RNA / expression: did not show an increase in PPAR-γ RNA; also recorded: marked decrease in PPARγ expression
[2]
  radioactive glucose uptake / insulin sensitivity: partially rescued the TNF-alpha treated adipocytes restoring insulin sensitivity
[3]
  fat staining: Significant reduction of fat staining
